Measurements: US20110177161A1, “PHARMACEUTICAL COMPOSITIONS OF [5(S)-(2'-HYDROXYETHOXY)-20(S)-CAMPTOTHECIN” (DR. REDDY'S LABORATORIES LIMITED, priority 2007, published 2011)
Marks after values point to notes of the source that are not given here.

Legend:
in vivo = assay: in vivo; parameters: species or system male Wistar rats; conditions: male, Wistar, rat, po, 2.5 mg/kg
Method: 5(S)-CPT (2.5 mg/kg) and 5(RS)-CPT (5 mg/kg, including 2.5 mg/kg of 5(S)-CPT in the mixture) were been administered to male Wistar Rats to evaluate oral pharmacokinetics.
Male Wistar rats, 6-8 weeks of age and weighing between 205 and 218 g were divided into groups of four rats. The oral pharmacokinetics test was carried out in overnight fasted condition and intravenous pharmacokinetics was carried out in fed condition. The test drugs were administered as a solution by oral gavage or lateral tail vein injection. Sparse blood samples of about 250 microliters were collected from retro-orbital plexus at designated time points into microcentrifuge tubes containing 25 microliters of EDTA. Plasma was separated by centrifuging blood at 12,800 rpm for 2 min and refrigerated until analysis.
Samples were tested for the presence of the test drug as follows. An aliquot of 100 μL plasma (stored at 8° C.) was precipitated with 400 μL of cold methanol for the estimation of total (lactone+carboxylate). […] Concentrations of the test drug were calculated from the linearity plotted by spiking known concentrations of the test drug in blank rat plasma. The pharmacokinetics of the test drug was calculated using non-compartmental analysis.

[1] = Solution stability in different alkaline solutions (HPLC impurities); format: physicochemical; parameters: C = Dimer impurity: unit not given beside the values
[2] = Arginine neutralized, 24 hours RT
[3] = Meglumine neutralized, 24 hours RT

CC[C@@]1(O)C(=O)OCc2c1cc1n(c2=O)[C@@H](OCCO)c2cc3ccccc3nc2-1 [DRF-(5S,20S)-1042, 5(S)-(2′-hydroxyethoxy)-20(S)-camptothecin]
AUC (in vivo): 1.21 µM·h
A = DRF (5R,20S)-1042 ([1]; Arginine as is, 24 hours RT): 5.22
B = Decarboxylated impurity ([1]; Arginine as is, 24 hours RT): 0.19
C = Dimer impurity ([1]; Arginine as is, 24 hours RT): 0.95
D = Total impurities excluding DRF (5R,20S)-1042 ([1]; Arginine as is, 24 hours RT): 3.23
A = DRF (5R,20S)-1042 ([1]; Arginine as is, Initial): 3.45
B = Decarboxylated impurity ([1]; Arginine as is, Initial): 0.06
C = Dimer impurity ([1]; Arginine as is, Initial): 0.88
D = Total impurities excluding DRF (5R,20S)-1042 ([1]; Arginine as is, Initial): 2.50
A = DRF (5R,20S)-1042 [1, 2]: 3.26
B = Decarboxylated impurity [1, 2]: 0.18
C = Dimer impurity [1, 2]: 0.93
D = Total impurities excluding DRF (5R,20S)-1042 [1, 2]: 3.11
A = DRF (5R,20S)-1042 ([1]; Arginine neutralized, Initial): 3.38
B = Decarboxylated impurity ([1]; Arginine neutralized, Initial): 0.04
C = Dimer impurity ([1]; Arginine neutralized, Initial): 0.9
D = Total impurities excluding DRF (5R,20S)-1042 ([1]; Arginine neutralized, Initial): 2.64
A = DRF (5R,20S)-1042 ([1]; Meglumine as is, 24 hours RT): 2.30
B = Decarboxylated impurity ([1]; Meglumine as is, 24 hours RT): 0.33
C = Dimer impurity ([1]; Meglumine as is, 24 hours RT): 7.17*
D = Total impurities excluding DRF (5R,20S)-1042 ([1]; Meglumine as is, 24 hours RT): 11.1
A = DRF (5R,20S)-1042 ([1]; Meglumine as is, Initial): 2.77
B = Decarboxylated impurity ([1]; Meglumine as is, Initial): 0.21
C = Dimer impurity ([1]; Meglumine as is, Initial): 12.04
D = Total impurities excluding DRF (5R,20S)-1042 ([1]; Meglumine as is, Initial): 21.15
A = DRF (5R,20S)-1042 [1, 3]: 2.57
B = Decarboxylated impurity [1, 3]: 0.33
C = Dimer impurity [1, 3]: 1.47
D = Total impurities excluding DRF (5R,20S)-1042 [1, 3]: 5.02
A = DRF (5R,20S)-1042 ([1]; Meglumine neutralized, Initial): 1.05
B = Decarboxylated impurity ([1]; Meglumine neutralized, Initial): 0.03
C = Dimer impurity ([1]; Meglumine neutralized, Initial): 0.54
D = Total impurities excluding DRF (5R,20S)-1042 ([1]; Meglumine neutralized, Initial): 1.49
A = DRF (5R,20S)-1042 ([1]; NaOH as is, 24 hours RT): 101.79
B = Decarboxylated impurity ([1]; NaOH as is, 24 hours RT): 0.02
C = Dimer impurity ([1]; NaOH as is, 24 hours RT): 0.48
D = Total impurities excluding DRF (5R,20S)-1042 ([1]; NaOH as is, 24 hours RT): 1.95
A = DRF (5R,20S)-1042 ([1]; NaOH as is, Initial): 75.40
B = Decarboxylated impurity ([1]; NaOH as is, Initial): 0.02
C = Dimer impurity ([1]; NaOH as is, Initial): 0.35
D = Total impurities excluding DRF (5R,20S)-1042 ([1]; NaOH as is, Initial): 1.81
A = DRF (5R,20S)-1042 ([1]; NaOH neutralized, 24 hours RT): 56.26
B = Decarboxylated impurity ([1]; NaOH neutralized, 24 hours RT): 0.02
C = Dimer impurity ([1]; NaOH neutralized, 24 hours RT): 0.37
D = Total impurities excluding DRF (5R,20S)-1042 ([1]; NaOH neutralized, 24 hours RT): 2.22
A = DRF (5R,20S)-1042 ([1]; NaOH neutralized, Initial): 56.75
B = Decarboxylated impurity ([1]; NaOH neutralized, Initial): 0.02
C = Dimer impurity ([1]; NaOH neutralized, Initial): 0.38
D = Total impurities excluding DRF (5R,20S)-1042 ([1]; NaOH neutralized, Initial): 1.81
